One data set has as its system CYP2E1. Further details: method as in earlier work. The settings on record: FDA Orange Books ref 65, 66; cited from earlier work.
A further data set has as its system CYP2A6. Details: method as in earlier work. Conditions: FDA Orange Books ref 65, 66; cited from earlier work.
The next data set relates to CYP1A2. Details: method as in earlier work. Conditions: FDA Orange Books ref 65, 66; cited from earlier work.
A further data set has as its target T1, ERα (Homo sapiens, UniProt P03372).
T1 sequence (P03372 1-595): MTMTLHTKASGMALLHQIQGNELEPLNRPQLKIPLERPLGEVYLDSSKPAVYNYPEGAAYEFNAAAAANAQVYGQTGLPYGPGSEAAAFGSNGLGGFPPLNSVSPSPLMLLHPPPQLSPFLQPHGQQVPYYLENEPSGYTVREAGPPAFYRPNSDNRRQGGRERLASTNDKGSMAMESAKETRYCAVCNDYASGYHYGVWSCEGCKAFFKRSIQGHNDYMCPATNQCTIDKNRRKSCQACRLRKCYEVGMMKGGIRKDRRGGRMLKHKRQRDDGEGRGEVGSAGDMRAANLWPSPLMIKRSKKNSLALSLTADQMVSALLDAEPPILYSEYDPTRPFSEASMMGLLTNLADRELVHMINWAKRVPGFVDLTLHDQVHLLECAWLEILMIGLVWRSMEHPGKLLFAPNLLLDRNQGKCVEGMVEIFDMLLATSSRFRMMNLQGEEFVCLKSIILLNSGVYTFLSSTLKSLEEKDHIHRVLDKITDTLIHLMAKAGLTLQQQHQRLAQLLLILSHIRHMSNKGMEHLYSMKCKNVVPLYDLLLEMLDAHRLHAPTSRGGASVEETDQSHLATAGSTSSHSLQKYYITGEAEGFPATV
Conditions: MST.

Molecules are shown by their SMILES. pIC50: −log10 of the molar value.

The pIC50 is the IC50 on a negative log10 scale, so that one unit is a factor of ten. With `Cc1nc(Nc2ncc(C(=O)Nc3c(C)cccc3Cl)s2)cc(N2CCN(CCO)CC2)n1` [Dasatinib, dasatinib], the pIC50 is less than 4.30 in the data set on CYP2E1 and 4.46 with CYP2A6. As for `Cc1ccc(Nc2nccc(N(C)c3ccc4c(C)n(C)nc4c3)n2)cc1S(N)(=O)=O` [Pazopanib, pazopanib], in the data set with CYP1A2, the negative-log IC50 (pIC50) is 4.80.

Regarding `CNC(=O)c1cc(Oc2ccc(NC(=O)Nc3ccc(Cl)c(C(F)(F)F)c3)cc2)ccn1` [Sorafenib, sorafenib], on ERα, the “interaction with ERα at detectable levels” value is on record as “did not interact”.

Source of the values: publication PMC9403029, “Identifying Novel Drug Targets by iDTPnd: A Case Study of Kinase Inhibitors” (Genomics, Proteomics & Bioinformatics, 2021).
